biological target: T1, 1-deoxy-D-xylulose 5-phosphate reductoisomerase (Escherichia coli (strain K12), UniProt P45568); assay: DXR Inhibition Assay
T1 sequence (P45568 whole entry): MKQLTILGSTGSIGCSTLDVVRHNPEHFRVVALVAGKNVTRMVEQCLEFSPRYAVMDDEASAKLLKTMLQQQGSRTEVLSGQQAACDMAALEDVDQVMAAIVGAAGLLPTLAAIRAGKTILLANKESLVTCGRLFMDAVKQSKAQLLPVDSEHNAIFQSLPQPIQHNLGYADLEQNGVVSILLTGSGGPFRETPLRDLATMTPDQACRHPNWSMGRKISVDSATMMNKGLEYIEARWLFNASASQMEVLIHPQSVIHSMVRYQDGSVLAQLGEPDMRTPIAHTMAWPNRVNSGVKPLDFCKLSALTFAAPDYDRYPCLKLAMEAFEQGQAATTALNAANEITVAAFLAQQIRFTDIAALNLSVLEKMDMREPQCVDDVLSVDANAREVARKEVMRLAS
Experimental: H-DXR was pre-incubated during 2 min in the presence of the inhibitors at different concentrations and DXP (480 µM). NADPH (160 µM final concentration) was then added to measure the residual activity. The flavonoids are poorly soluble in water. Flavonoids solutions at different concentrations were prepared in DMSO by serial dilutions from 100 mM stock solutions. […] The inhibition mechanism of myricetin was studied by preincubating H-DXR with DXP at varied concentrations (96 480 µM) and fixed concentrations of myricetin (0.5, 1 and 2 µM). The enzymatic reaction was initiated by NADPH (final concentration160 µM). Fosmidomycin was used as a positive reference.

| Structure (SMILES) | IC50 [µM] |
| --- | --- |
| O=c1c(O)c(-c2ccc(O)c(O)c2)oc2cc(O)cc(O)c12 [2-(3,4-dihydroxyphenyl)-3,5,7-trihydroxy-chromone;hydrate] | 1.9 |
| O=c1c(O)c(-c2cc(O)c(O)c(O)c2)oc2cc(O)cc(O)c12 | 1.5 |
| O=c1c(O)c(-c2ccc(O)c(O)c2)oc2cc(O)ccc12 [2-(3,4-dihydroxyphenyl)-3,7-dihydroxy-chromen-4-one] | 3.5 |
| O=c1cc(-c2ccccc2)oc2cc(O)c(O)c(O)c12 | 2.2 |
| O=c1cc(-c2ccc(O)c(O)c2)oc2cc(O)cc(O)c12 [2-(3,4-dihydroxyphenyl)-5,7-dihydroxy-4H-chromen-4-one] | 3.4 |

— BindingDB's records for doi:10.1016/j.bioorg.2015.02.008 (University of Strasburg, 2015)
